From US12185750B2, “Acyl nornicotines reduce sensory irritation in tobacco and nicotine products” (Altria Client Services LLC, priority 2015, dated 2025)
Where two headings read alike, the source gives them in different places.

Experiments:
[1] = target: T1, human nicotinic acetylcholine receptor α3β4 (nACHR α3β4) (Homo sapiens, UniProt P30926+P32297); assay: calcium influx in HEK293 cells expressing nACHR α3β4, co-applied with nicotine; type: cell-based
T1 construct: expressed in transfected cells; host or cells: HEK293
Description: Human cell line HEK293 were designed to express human nicotinic acetylcholine receptor α3β4 (nACHR α3β4), which is a receptor associated with sensory irritation. These cells were plated on 96 well plates and acyl nornicotines were co-applied with a concentration of nicotine sufficient to yield 100% cell activation of the receptor. The influx of calcium into the cell is measured as an indicator of receptor activation.

[2] = test system: nicotine triggered release of CGRP in buccal tissue; assay: nicotine triggered CGRP release in mouse buccal tissue; type: cell-based; conditions: for effect on buccal nicotine response (CGRP release): 20 mM compound, Nicotine 20 mM, equimolar, FIG. 8
Description: Mouse buccal tissue samples are treated with 10 μM or 1 μM of N-Hexanoylnornicotine for 10 minutes. After five minutes of exposure, Nicotine (10 mM) is added to the buccal tissue samples for five minutes. CGRP release is measured for 15 minutes starting at the time point of N-Hexanoylnornicotine exposure. Control samples are exposed to Nicotine (10 mM) without the addition of N-Hexanoylnornicotine.
Mouse buccal tissue samples were treated with N-Hexanoylnornicotine (20 mM) or N-Octanoylnornicotine (20 mM) for 10 minutes. After 5 minutes of exposure, Nicotine (20 mM) was added to the […] tissue samples for five minutes. CGRP release is measured for 20 minutes starting five minutes prior to the time point of N-Octanoylnornicotine and N-Hexanoylnornicotine exposure. Control samples are exposed to Nicotine (20 mM) without the addition of N-Octanoylnornicotine or N-Hexanoylnornicotine.
(§1) FIGS. 2-8 show the results of studies on the effect of acyl nornicotine on nicotine triggered release of CGRP. CGRP is a biomarker of sensory irritation, specifically a marker of neurogenic inflammation. Tracheal or buccal mouse tissue samples were each treated with N-Hexanoylnornicotine or N-Octanoylnornicotine prior to exposure to nicotine or potassium chloride (KCl), used as a control. The test compounds were provided in a synthetic interstitial fluid and the release of CGRP was measured.

[3] = test system: tracheal potassium chloride (KCl) response; assay: KCl triggered CGRP release in mouse tracheal tissue (control); type: cell-based; conditions: 10 μM compound, KCl 60 mM, FIG. 3
Description: As in FIG. 2, mouse tracheal tissue samples are treated with N-Hexanoylnornicotine (10 μM) for 10 minutes. After five minutes of exposure, KCl (60 mM) is added to the tracheal tissue samples for the remaining five minutes N-Hexanoylnornicotine exposure. CGRP release is measured for 15 minutes starting at the time point of N-Hexanoylnornicotine exposure. Control samples are exposed to KCl (60 mM) without the addition of N-Hexanoylnornicotine.
as §1

[4] = test system: nicotine triggered release of CGRP in tracheal tissue; assay: nicotine triggered CGRP release in mouse tracheal tissue; type: cell-based
Description: Mouse tracheal tissue samples are treated with N-Hexanoylnornicotine (10 μM) for 10 minutes. After five minutes of exposure, Nicotine (100 μM) is added to the tracheal tissue samples for the remaining five minutes of N-Hexanoylnornicotine exposure. CGRP release is measured for 15 minutes starting at the time point of N-Hexanoylnornicotine exposure. Control samples are exposed to Nicotine (100 μM) without the addition of N-Hexanoylnornicotine. […]
as §1

[5] = half-tongue test: acyl nornicotine pre-treatment before nicotine solution; type: in vivo, human
Description: The effect of pre-treatment with acyl nornicotine on sensory irritation from nicotine was tested using half-tongue test. N-Octanoylnornicotine was applied to tongues of human volunteers prior to application of a nicotine solution. Randomized sides of tongues were selected for application of liquid test sample or liquid control sample on filter paper. The liquid test sample or liquid control sample was applied to one side of a subject's tongue or the other. Blinded N-Octanoylnornicotine or water on filter paper was applied to the subject's tongue for 2 minutes, and then removed. […] After a 30 second wait, filter papers with added nicotine solutions were applied to the spots on the tongue where the pre-treatment filter papers had been applied. Over the following 2 minutes, subjects were asked to note sensory perceptions. Samples containing N-Octanoylnornicotine were at 10% of the level of the nicotine challenge samples.

[6] = HEK293 nACHR α3β4, calcium influx

T1 sequence (P32297 32-505): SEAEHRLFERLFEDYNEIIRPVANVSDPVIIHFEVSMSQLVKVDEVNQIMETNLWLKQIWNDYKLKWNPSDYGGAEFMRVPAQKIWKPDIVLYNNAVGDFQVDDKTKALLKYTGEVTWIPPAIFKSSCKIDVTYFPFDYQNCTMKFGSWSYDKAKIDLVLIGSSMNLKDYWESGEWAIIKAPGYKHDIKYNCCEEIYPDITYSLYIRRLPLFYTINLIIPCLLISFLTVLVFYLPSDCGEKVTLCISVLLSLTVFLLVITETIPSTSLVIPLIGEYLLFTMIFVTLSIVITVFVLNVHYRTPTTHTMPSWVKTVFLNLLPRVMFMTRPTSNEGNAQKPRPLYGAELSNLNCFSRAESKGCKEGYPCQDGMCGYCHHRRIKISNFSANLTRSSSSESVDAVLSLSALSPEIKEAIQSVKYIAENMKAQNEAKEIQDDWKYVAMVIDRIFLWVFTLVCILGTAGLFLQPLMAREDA
T1 sequence (P30926 22-498): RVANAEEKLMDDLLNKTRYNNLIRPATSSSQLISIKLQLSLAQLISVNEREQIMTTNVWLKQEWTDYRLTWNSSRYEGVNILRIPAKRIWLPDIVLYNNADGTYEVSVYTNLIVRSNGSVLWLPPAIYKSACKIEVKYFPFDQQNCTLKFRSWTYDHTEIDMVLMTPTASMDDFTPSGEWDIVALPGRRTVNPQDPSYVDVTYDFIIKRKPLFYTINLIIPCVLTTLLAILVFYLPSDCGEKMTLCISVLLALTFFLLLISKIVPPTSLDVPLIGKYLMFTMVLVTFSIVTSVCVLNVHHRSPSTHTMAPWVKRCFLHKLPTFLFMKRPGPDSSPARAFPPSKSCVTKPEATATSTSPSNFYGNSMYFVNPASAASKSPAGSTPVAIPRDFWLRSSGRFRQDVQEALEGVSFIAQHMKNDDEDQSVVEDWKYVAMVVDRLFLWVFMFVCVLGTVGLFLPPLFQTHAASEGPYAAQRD

Row | calcium influx inhibited ([1]; 1:1 acyl nornicotine:nicotine) [%] | IC50 ([1]; HEK293 nACHR α3β4, calcium influx, v 70 μM nicotine, read-out: Inhibition (IC50 v 70 μM nicotine)) [nM] | Structure (SMILES) | calcium influx inhibited ([1]; 1:10 acyl nornicotine:nicotine) [%] | Activation (threshold) [1, 6] [mM] | effect on buccal supramaximal nicotine response (TRPA1/V1 mediated, CGRP release) ([2]; 10 μM compound, Nicotine 10 mM, FIG. 5) | effect on buccal nicotine response (CGRP release) [2] | effect on tracheal KCl response (CGRP release) [3] | effect on specific tracheal nicotine response (CGRP release) ([4]; 10 μM compound, Nicotine 100 μM, FIG. 2) | effect on tracheal supramaximal nicotine response (TRPA1/V1 mediated, CGRP release) ([4]; 10 μM compound, Nicotine 10 mM, FIG. 4) | IC50 [1] [nM] | calcium influx inhibited ([1]; 1:100 acyl nornicotine:nicotine) [%] | relative potency, C8 versus C6 acyl nornicotine ([1]; calcium influx, co-applied with nicotine) | sensation from the compound itself on the tongue ([5]; applied on filter paper for 2 minutes, human volunteers) | irritation/burn from nicotine after pre-treatment ([5]; compound at 10% of the level of the nicotine challenge, versus water side) | effect on specific tracheal nicotinic response (CGRP release) ([4]; 100 μM compound, Nicotine 100 μM, equimolar, FIG. 6) | effect on basal tracheal response (CGRP release) ([4]; 100 μM compound, before nicotine, FIG. 6) | effect on specific and supramaximal tracheal nicotine response (CGRP release) ([4]; 10 mM compound, Nicotine 10 mM, equimolar, FIG. 7) | relative potency, C8 versus C6 acyl nornicotine ([4]; CGRP release in mouse tissue (tracheal/buccal not specified))
1 | 100 | 5000 | CCCCCC(=O)N1CCCC1c1cccnc1 (stereo not drawn) [N-Hexanoylnornicotine] | 50 | 10 | does not change the buccal supramaximal nicotine response | prevent the buccal nicotine response | does not change the KCl response | abolishes the specific tracheal nicotine response | does not change the tracheal supramaximal nicotine response |  |  |  |  |  |  |  |  | 
2 |  |  | CCCCCCCC(=O)N1CCCC1c1cccnc1 (stereo not drawn) [N-Octanoylnornicotine] | 100 | 1 |  | prevent the buccal nicotine response |  |  |  | 500 | 50 | more potent than shorter chain (C6) acyl nornicotine | tingling or burning sensation | obvious reduction in irritation/burn | abrogates the specific tracheal nicotinic response | lowers basal tracheal nicotine response | abrogates the specific and supramaximal nicotine response | more potent than a shorter chain (C6) acyl nornicotine
